The source made the active and inactive calls. No cut-off for these calls is given here.
Experiments:
A549 [1] = experiment: Activation of MAPK pathway in human A549 cells assessed as effect on MAPK protein expression at 2.5 to 5 uM by Western blot analysis; assay type: cell-based; conditions: filed as activator, dose 2.5-5 µM
[2] = Developmental toxicity in wild type AB zebrafish assessed as survival rate at 50 uM incubated for 72 hrs followed by LED light irradiation at 1.8 mW cm/2 relative to control; parameters: species or system Danio rerio; conditions: in vivo
[3] = Induction of type-1 ROS generation in tetrahydrofuran at 0.5 uM followed by LED white light irradiation at 1.8 mWcm/2 for 300 sec by DCFH staining based analysis; assay type: functional
[4] = Developmental toxicity in wild type AB zebrafish assessed as effect on heart at 50 uM incubated for 72 hrs followed by LED light irradiation at 1.8 mW cm/2 relative to control; parameters: species or system Danio rerio; conditions: in vivo
A549 [5] = experiment: Inhibition of cell migration in human A549 cells at 0.25 uM preincubated for 12 hrs followed by LED light irradiation 1.8 mW cm/2 for 2 hrs and measured after 48 hrs by wound healing assay; assay type: functional, cell-based; conditions: time 62.0 hrs
[6] = Developmental toxicity in wild type AB zebrafish assessed as effect on heart at 50 uM incubated for 72 hrs under dark condition; parameters: species or system Danio rerio; conditions: in vivo
MCF7 = experiment: Phototoxicity against human MCF7 cells assessed as reduction in cell proliferation at 0.156 to 10 uM irradiated with LED light at 1.8 mWcm/2 for 2 hrs and measured after 24 hrs under normoxia condition by MTT assay; assay type: functional, cell-based; conditions: dose 0.156-10 µM, time 26.0 hrs
A549 [7] = experiment: Inhibition of cell migration in human A549 cells assessed as appearance of loose cells at 0.25 uM preincubated for 12 hrs followed by LED light irradiation 1.8 mW cm/2 for 2 hrs and measured after 48 hrs by wound healing assay; assay type: functional, cell-based; conditions: time 62.0 hrs
A549 [8] = experiment: Induction of apoptosis in human A549 cells assessed as upregulation of cleaved caspase-3 expression at 2.5 to 5 uM with irradiation of LED light at 1.8 mW cm/2 by Western blot analysis; assay type: functional, cell-based; conditions: dose 2.5-5 µM
[9] = Induction of type-2 ROS generation in methanol assessed as generation of single oxygen at 0.5 uM followed by Xe lamp irradiation for 5 mins by DCFH staining based analysis; assay type: functional
A549 [10] = experiment: Antitumor activity in human A549 cells xenografted in Ab wild type Zebrafish embryos assessed as decrease in tumor growth by measuring fluorescence intensity at 2.9 to 5.8 ng preincubated for 12 hrs followed by irradiation of LED light of 1.8 mW cm/2 for 2 hrs and measured after 48 to 72 hrs; assay type: functional, cell-based; conditions: dose 2.9-5.8 ng, time 62-86 hrs
A549 [11] = experiment: Activation of ERK1/2 pathway in human A549 cells assessed as increase in ERK phosphorylation level at 2.5 to 5 uM by Western blot analysis; assay type: cell-based; conditions: filed as activator, dose 2.5-5 µM
MDA-MB-231 = experiment: Phototoxicity against human MDA-MB-231 cells assessed as reduction in cell proliferation at 0.156 to 10 uM irradiated with LED light at 1.8 mWcm/2 for 2 hrs and measured after 24 hrs under normoxia condition by MTT assay; assay type: functional, cell-based; conditions: dose 0.156-10 µM, time 26.0 hrs
A549 [12] = experiment: Phototoxicity against human A549 cells assessed as reduction in cell proliferation at 0.156 to 10 uM irradiated with LED light at 1.8 mWcm/2 for 2 hrs and measured after 24 hrs under normoxia condition by MTT assay; assay type: functional, cell-based; conditions: dose 0.156-10 µM, time 26.0 hrs
[13] = molecular target: T1, c-Jun N-terminal kinase, JNK (Homo sapiens) (UniProt P45983+P53779+P45984); experiment: Activation of JNK pathway in human A549 cells assessed as effect on JNK protein expression at 2.5 to 5 uM by Western blot analysis; assay type: cell-based; conditions: filed as activator, dose 2.5-5 µM
A549 [14] = experiment: Inhibition of cell migration in human A549 cells assessed as appearance of loose cells at 0.25 uM preincubated for 12 hrs followed by incubation under dark condition and measured after 48 hrs by wound healing assay; assay type: functional, cell-based; conditions: time 60.0 hrs
A549 [15] = experiment: Induction of intracellular ROS generation in human A549 cells by measuring red fluorescence at 0.4 to 1.2 uM incubated for 24 hrs in presence of LED light irradiation at 1.8 mW cm/2 by DHE based fluorescence microscopy analysis; assay type: functional, cell-based; conditions: dose 0.4-1.2 µM
A549 [16] = experiment: Induction of intracellular ROS generation in human A549 cells by measuring red fluorescence at 0.4 to 1.2 uM incubated for 24 hrs under dark condition by DHE based fluorescence microscopy analysis; assay type: functional, cell-based; conditions: dose 0.4-1.2 µM
HepG2 = experiment: Phototoxicity against human HepG2 cells assessed as reduction in cell proliferation at 0.156 to 10 uM irradiated with LED light at 1.8 mWcm/2 for 2 hrs and measured after 24 hrs under normoxia condition by MTT assay; assay type: functional, cell-based; conditions: dose 0.156-10 µM, time 26.0 hrs
[17] = Developmental toxicity in wild type AB zebrafish assessed as effect on morphological abnormalities at 1.57 to 50 uM incubated for 72 hrs under dark condition; parameters: species or system Danio rerio; conditions: in vivo, dose 1.57-50 µM
A549 [18] = experiment: Induction of apoptosis in human A549 cells assessed as downregulation of Bcl-2 expression at 2.5 to 5 uM with irradiation of LED light at 1.8 mW cm/2 by Western blot analysis; assay type: functional, cell-based; conditions: dose 2.5-5 µM
[19] = Developmental toxicity in wild type AB zebrafish assessed as survival rate at 50 uM incubated for 72 hrs under condition relative to control; parameters: species or system Danio rerio; conditions: in vivo
[20] = Developmental toxicity in wild type AB zebrafish assessed as effect on morphological abnormalities at 1.57 to 50 uM incubated for 72 hrs followed by LED light irradiation at 1.8 mW cm/2; parameters: species or system Danio rerio; conditions: in vivo, dose 1.57-50 µM
[21] = molecular target: Signal transducer and activator of transcription 3 (Homo sapiens) (UniProt P40763); experiment: Inhibition of STAT3 pathway in human A549 cells assessed as decrease in STAT3 phosphorylation level at 2.5 to 5 uM by Western blot analysis; assay type: cell-based; conditions: dose 2.5-5 µM
A549 [22] = experiment: Induction of apoptosis in human A549 cells assessed as upregulation of cleaved Bax expression at 2.5 to 5 uM with irradiation of LED light at 1.8 mW cm/2 by Western blot analysis; assay type: functional, cell-based; conditions: dose 2.5-5 µM
[23] = Developmental toxicity in wild type AB zebrafish assessed as hatching rate at 50 uM incubated for 72 hrs followed by LED light irradiation at 1.8 mW cm/2 relative to control; parameters: species or system Danio rerio; conditions: in vivo
A549 [24] = experiment: Inhibition of cell migration in human A549 cells assessed as appearance of blurred cells at 0.25 uM preincubated for 12 hrs followed by LED light irradiation 1.8 mW cm/2 for 2 hrs and measured after 48 hrs by wound healing assay; assay type: functional, cell-based; conditions: time 62.0 hrs
[25] = Phototoxicity against human A549 cells assessed as reduction in cell proliferation irradiated with LED light at 1.8 mWcm/2 for 2 hrs and measured after 24 hrs under normoxia condition by MTT assay; assay type: functional, cell-based; conditions: A549, light or radiation study
[26] = molecular target: Signal transducer and activator of transcription 3 (Homo sapiens) (UniProt P40763); experiment: Inhibition of STAT3 pathway in human A549 cells assessed as decrease in STAT3 protein expression at 2.5 to 5 uM by Western blot analysis; assay type: cell-based; conditions: dose 2.5-5 µM
[27] = Drug localization in ER of human A549 cells assessed as colocalization by ER-Tracker green staining based analysis; assay type: ADME, subcellular, Endoplasmic reticulum
[28] = molecular target: T1, c-Jun N-terminal kinase, JNK (Homo sapiens); experiment: Activation of JNK pathway in human A549 cells assessed as increase in JNK phosphorylation level at 2.5 to 5 uM by Western blot analysis; assay type: cell-based; conditions: filed as activator, dose 2.5-5 µM
A549 [29] = experiment: Induction of apoptosis in human A549 cells assessed as increase in nuclear shrinkage at 2.5 to 5 uM incubated for 30 mins with irradiation of LED light at 1.8 mW cm/2 by Hoechst 33342 staining based light microscopy analysis; assay type: functional, cell-based; conditions: dose 2.5-5 µM
A549 [30] = experiment: Induction of apoptosis in human A549 cells assessed as downregulation of caspase-3 expression at 2.5 to 5 uM with irradiation of LED light at 1.8 mW cm/2 by Western blot analysis; assay type: functional, cell-based; conditions: dose 2.5-5 µM
A549 [31] = experiment: Inhibition of cell migration in human A549 cells at 0.25 uM preincubated for 12 hrs followed by incubation under dark condition and measured after 48 hrs by wound healing assay; assay type: functional, cell-based; conditions: time 60.0 hrs
A549 [32] = experiment: Inhibition of cell migration in human A549 cells assessed as appearance of blurred cells at 0.25 uM preincubated for 12 hrs followed by incubation under dark condition and measured after 48 hrs by wound healing assay; assay type: functional, cell-based; conditions: time 60.0 hrs
A549 [33] = experiment: Activation of ERK1/2 pathway in human A549 cells assessed as effect on ERK protein expression at 2.5 to 5 uM by Western blot analysis; assay type: cell-based; conditions: filed as activator, dose 2.5-5 µM
[34] = Photophysical property of the compound assessed as fluorescence quantum yield; assay type: physicochemical
A549 [35] = experiment: Induction of apoptosis in human A549 cells assessed as upregulation of cleaved PARP expression at 2.5 to 5 uM with irradiation of LED light at 1.8 mW cm/2 by Western blot analysis; assay type: functional, cell-based; conditions: dose 2.5-5 µM
[36] = Drug localization in mitochondria of human A549 cells assessed as colocalization by Mitotracker res staining based analysis; assay type: ADME
Mitochondrial membrane [37] = experiment: Induction of mitochondrial membrane potential loss in human A549 cells assessed as increase in green fluorescence of JC-1 monomers at 0.4 to 1.2 uM incubated for 24 hrs with irradiation of LED light at 1.8 mW cm/2 by light microscopy analysis; assay type: cell membranes; conditions: dose 0.4-1.2 µM
[38] = Induction of type-1 ROS generation in tetrahydrofuran assessed as fold increase in DHR123 fluorescence intensity at 0.5 uM followed by LED white light irradiation at 1.8 mWcm/2 for 300 sec by DCFH staining based analysis; assay type: functional
Mitochondrial membrane [39] = experiment: Induction of mitochondrial membrane potential loss in human A549 cells assessed as decrease in red fluorescence of JC-1 aggregates at 0.4 to 1.2 uM incubated for 24 hrs with irradiation of LED light at 1.8 mW cm/2 by light microscopy analysis; assay type: cell membranes; conditions: dose 0.4-1.2 µM
[40] = Developmental toxicity in wild type AB zebrafish assessed as hatching rate at 50 uM incubated for 72 hrs under dark condition; parameters: species or system Danio rerio; conditions: in vivo
A549 [41] = experiment: Activation of MAPK pathway in human A549 cells assessed as increase in MAPK phosphorylation level at 2.5 to 5 uM by Western blot analysis; assay type: cell-based; conditions: filed as activator, dose 2.5-5 µM
[42] = Dark toxicity in human HBE cells assessed as cell viability incubated for 24 hrs in dark by MTT assay; assay type: cell-based
[43] = Induction of type-1 ROS generation in tetrahydrofuran assessed as increase in singlet oxygen production by measuring ABDA absorption peak at 0.5 uM followed by LED white light irradiation at 1.8 mWcm/2 for 300 sec by DCFH staining based analysis; assay type: functional

Sequence of Signal transducer and activator of transcription 3 (Homo sapiens) (P40763 whole entry): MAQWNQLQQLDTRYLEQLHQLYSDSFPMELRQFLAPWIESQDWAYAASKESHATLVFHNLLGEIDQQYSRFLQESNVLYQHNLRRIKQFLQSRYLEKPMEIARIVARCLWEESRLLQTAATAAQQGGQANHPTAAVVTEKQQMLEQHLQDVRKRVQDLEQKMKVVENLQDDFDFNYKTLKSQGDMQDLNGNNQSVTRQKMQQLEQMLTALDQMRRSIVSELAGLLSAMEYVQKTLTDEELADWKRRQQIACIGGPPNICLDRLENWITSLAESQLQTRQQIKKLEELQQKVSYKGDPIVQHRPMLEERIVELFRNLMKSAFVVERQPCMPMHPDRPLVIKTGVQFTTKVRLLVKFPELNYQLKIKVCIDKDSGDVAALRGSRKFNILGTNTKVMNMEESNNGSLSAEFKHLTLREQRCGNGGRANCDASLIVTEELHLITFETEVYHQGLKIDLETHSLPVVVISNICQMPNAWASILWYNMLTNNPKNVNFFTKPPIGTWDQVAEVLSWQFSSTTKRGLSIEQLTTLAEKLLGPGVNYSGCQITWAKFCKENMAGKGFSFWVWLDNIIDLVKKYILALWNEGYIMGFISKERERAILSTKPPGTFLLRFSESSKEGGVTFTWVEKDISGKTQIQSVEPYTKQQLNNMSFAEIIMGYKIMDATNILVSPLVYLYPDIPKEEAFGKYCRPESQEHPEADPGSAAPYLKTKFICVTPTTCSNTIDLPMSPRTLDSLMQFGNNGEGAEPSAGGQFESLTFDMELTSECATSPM

With `CCN(CC)c1ccc2cc(C(=O)/C=C/c3ccc4c(c3)CN3CN4Cc4cc(Br)ccc43)c(=O)oc2c1` the Activity (A549 [1]) was “Active; Compound Showed Little Change In Protein Expression”, the survival at 72 h, 50 µM [2] was 100% and the Activity [3] was “Active”. The Activity [4] was “Non-toxic”, the inhibition (A549 [5]) was “Active” and the Activity [6] was “Non-toxic”. The Activity (MCF7) was “Active”, the inhibition (A549 [7]) was “Active” and the Activity (A549 [8]) was “Active”. For the same compound, the Activity [9] was “Active”, the Activity (A549 [10]) was “Active” and the Activity (A549 [11]) was “Active”. The Activity (MDA-MB-231) was “Active”, the Activity (A549 [12]) was “Active” and the Activity [13] was “Active; Compound Showed Little Change In Protein Expression”. For the same compound, the inhibition (A549 [14]) was “Active”, the Activity (A549 [15]) was “Active” and the Activity (A549 [16]) was “inactive”. For the same compound, the Activity (HepG2) was “Active”, the Activity [17] was “Non-toxic” and the Activity (A549 [18]) was “Active”. For the same compound, the survival at 72 h, 50 µM [19] was 100%, the Activity [20] was “Non-toxic” and the inhibition [21] was “Active”. For the same compound, the Activity (A549 [22]) was “Active”, the Activity [23] was 100% and the inhibition (A549 [24]) was “Active”. The IC50 [25] was 460 nM, the inhibition [26] was “Active” and the Drug uptake [27] was “Active”. For the same compound, the Activity [28] was “Active”, the Activity (A549 [29]) was “Active” and the Activity (A549 [30]) was “Active”. The inhibition (A549 [31]) was “Active”, the inhibition (A549 [32]) was “Active” and the Activity (A549 [33]) was “Active; Compound Showed Little Change In Protein Expression”. The Fluorescence quantum yield [34] was 0.12, the Activity (A549 [35]) was “Active” and the Drug uptake [36] was “Active”. The Activity (Mitochondrial membrane [37]) was “Active”, the fold change (FC) [38] was 25.6 and the Activity (Mitochondrial membrane [39]) was “Active”. For the same compound, the Activity [40] was 100%, the Activity (A549 [41]) was “Active” and the Activity [42] was “Toxic”.
For `CCN(CC)c1ccc2cc(C(=O)/C=C/c3cc4c(cc3OC)N3Cc5cc(Br)c(OC)cc5N(C4)C3)c(=O)oc2c1`, the Activity [3] was “Active”, the Activity [43] was “inactive” and the Fluorescence quantum yield [34] was 0.16. For the same compound, the fold change (FC) [38] was 17.4 and the Activity [42] was “Toxic”.
